Test results published in ChEMBL document CHEMBL1201862, “PubChem BioAssay data set” (2004).
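Exposure lasted 48 hours, with cells grown in 96-well plates and compounds tested at five concentrations. GI50 is the concentration that inhibits growth by half.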 Activity calls are given as the source filed them. No stated cut-off is given here; in the data, active = GI50 up to about 1.1 µM and inactive = higher.

How the values were obtained:
Test in all cases: inhibition of tumour cell growth, NCI panel, 48 h
786-0 = tested on: 786-0
A498 = tested on: A498
A549 = tested on: A549
ACHN = tested on: ACHN
BT-549 = tested on: BT-549
CAKI-1 = tested on: CAKI-1
CCRF-CEM = tested on: CCRF-CEM
COLO 205 = tested on: COLO 205
DU-145 = tested on: DU-145
EKVX = tested on: EKVX
HCC 2998 = tested on: HCC 2998
HCT-116 = tested on: HCT-116
HCT-15 = tested on: HCT-15
HL-60 = tested on: HL-60
HOP-62 = tested on: HOP-62
HOP-92 = tested on: HOP-92
HT-29 = tested on: HT-29
Hs-578T = tested on: Hs-578T
IGROV-1 = tested on: IGROV-1
K562 = tested on: K562
KM12 = tested on: KM12
LOX IMVI = tested on: LOX IMVI
M14 = tested on: M14
MCF7 = tested on: MCF7
MDA-MB-231 = tested on: MDA-MB-231
MDA-MB-435 = tested on: MDA-MB-435
MDA-N = tested on: MDA-N
MOLT-4 = tested on: MOLT-4
Malme-3M = tested on: Malme-3M
NCI-H23 = tested on: NCI-H23
NCI-H460 = tested on: NCI-H460
NCI-H522 = tested on: NCI-H522
NCI/ADR-RES = tested on: NCI/ADR-RES
OVCAR-3 = tested on: OVCAR-3
OVCAR-4 = tested on: OVCAR-4
OVCAR-5 = tested on: OVCAR-5
OVCAR-8 = tested on: OVCAR-8
PC-3 = tested on: PC-3
RPMI-8226 = tested on: RPMI-8226
RXF 393 = tested on: RXF 393
SF-268 = tested on: SF-268
SF-295 = tested on: SF-295
SF-539 = tested on: SF-539
SK-MEL-28 = tested on: SK-MEL-28
SK-MEL-2 = tested on: SK-MEL-2
SK-MEL-5 = tested on: SK-MEL-5
SK-OV-3 = tested on: SK-OV-3
SN12C = tested on: SN12C
SNB-19 = tested on: SNB-19
SNB-75 = tested on: SNB-75
SR = tested on: SR
SW-620 = tested on: SW-620
T47D = tested on: T47D
TK-10 = tested on: TK-10
U-251 = tested on: U-251
UACC-257 = tested on: UACC-257
UACC-62 = tested on: UACC-62
UO-31 = tested on: UO-31
NCI-H226 = tested on: NCI-H226

## Cc1cc(C(C)(C)C)c(OCCCN2CCOCC2)c(C(C)(C)C)c1
786-0
  GI50: 17.3 µM (inactive)
A498
  GI50: 18.9 µM (inactive)
A549
  GI50: 17.5 µM (inactive)
ACHN
  GI50: 17.4 µM (inactive)
BT-549
  GI50: 17.5 µM (inactive)
CAKI-1
  GI50: 19.1 µM (inactive)
CCRF-CEM
  GI50: 16.6 µM (inactive)
COLO 205
  GI50: 15.7 µM (inactive)
DU-145
  GI50: 17.1 µM (inactive)
EKVX
  GI50: 17.9 µM (inactive)
HCC 2998
  GI50: 16.7 µM (inactive)
HCT-116
  GI50: 16.7 µM (inactive)
HCT-15
  GI50: 18 µM
HL-60
  GI50: 14.1 µM (inactive)
HOP-62
  GI50: 19.5 µM (inactive)
HOP-92
  GI50: 20.4 µM (inactive)
HT-29
  GI50: 16.3 µM (inactive)
Hs-578T
  GI50: 20.7 µM (inactive)
IGROV-1
  GI50: 19.5 µM (inactive)
K562
  GI50: 16.6 µM (inactive)
KM12
  GI50: 17.5 µM (inactive)
LOX IMVI
  GI50: 20.6 µM (inactive)
M14
  GI50: 16.8 µM (inactive)
MCF7
  GI50: 18.6 µM (inactive)
MDA-MB-231
  GI50: 17.4 µM (inactive)
MDA-MB-435
  GI50: 19.4 µM (inactive)
MDA-N
  GI50: 18.1 µM (inactive)
MOLT-4
  GI50: 17.1 µM (inactive)
Malme-3M
  GI50: 20.1 µM (inactive)
NCI-H23
  GI50: 17.5 µM (inactive)
NCI-H460
  GI50: 30.9 µM (inactive)
NCI-H522
  GI50: 17.9 µM (inactive)
NCI/ADR-RES
  GI50: 17 µM (inactive)
OVCAR-3
  GI50: 19.2 µM (inactive)
OVCAR-4
  GI50: 15.9 µM (inactive)
OVCAR-5
  GI50: 17.9 µM (inactive)
OVCAR-8
  GI50: 20.2 µM (inactive)
PC-3
  GI50: 15.8 µM (inactive)
RPMI-8226
  GI50: 14.1 µM (inactive)
RXF 393
  GI50: 16 µM (inactive)
SF-268
  GI50: 18.7 µM (inactive)
SF-295
  GI50: 17.5 µM (inactive)
SF-539
  GI50: 18.7 µM (inactive)
SK-MEL-28
  GI50: 16.4 µM (inactive)
SK-MEL-2
  GI50: 16.5 µM (inactive)
SK-MEL-5
  GI50: 15.9 µM (inactive)
SK-OV-3
  GI50: 20 µM (inactive)
SN12C
  GI50: 17.8 µM (inactive)
SNB-19
  GI50: 17.3 µM (inactive)
SNB-75
  GI50: 16.7 µM (inactive)
SR
  GI50: 17.7 µM (inactive)
SW-620
  GI50: 16.9 µM (inactive)
T47D
  GI50: 15.1 µM (inactive)
TK-10
  GI50: 19.3 µM (inactive)
U-251
  GI50: 18 µM (inactive)
UACC-257
  GI50: 17.3 µM (inactive)
UACC-62
  GI50: 16 µM (inactive)
UO-31
  GI50: 18.3 µM (inactive)

## Cc1ccc(S(=O)(=O)N/N=C2\CCC3(O)CC2(C)CCC2C3CC2(C)C)cc1 (centres undefined)
786-0
  GI50: 45.3 µM (inactive)
A498
  GI50: 36.8 µM (inactive)
A549
  GI50: 33.4 µM (inactive)
ACHN
  GI50: 31.8 µM (inactive)
BT-549
  GI50: 65.3 µM (inactive)
CAKI-1
  GI50: 37.2 µM (inactive)
CCRF-CEM
  GI50: > 100 µM (inactive)
COLO 205
  GI50: 22.5 µM (inactive)
DU-145
  GI50: 36.2 µM (inactive)
EKVX
  GI50: 40.1 µM (inactive)
HCC 2998
  GI50: 46.3 µM (inactive)
HCT-116
  GI50: 30.7 µM (inactive)
HCT-15
  GI50: 36.2 µM
HL-60
  GI50: > 100 µM (inactive)
HOP-62
  GI50: 92.7 µM (inactive)
HOP-92
  GI50: 28.4 µM (inactive)
HT-29
  GI50: 34.4 µM (inactive)
Hs-578T
  GI50: 20 µM (inactive)
IGROV-1
  GI50: 45.1 µM (inactive)
K562
  GI50: > 100 µM (inactive)
KM12
  GI50: 35.6 µM (inactive)
LOX IMVI
  GI50: 32.1 µM (inactive)
M14
  GI50: 47.9 µM (inactive)
MCF7
  GI50: 39.6 µM (inactive)
MDA-MB-231
  GI50: 47.8 µM (inactive)
MDA-MB-435
  GI50: 40.5 µM (inactive)
MDA-N
  GI50: 38.5 µM (inactive)
MOLT-4
  GI50: 85.9 µM (inactive)
Malme-3M
  GI50: 53.2 µM (inactive)
NCI-H226
  GI50: 27.4 µM (inactive)
NCI-H23
  GI50: 49.5 µM (inactive)
NCI-H460
  GI50: 19.3 µM (inactive)
NCI-H522
  GI50: 20.9 µM (inactive)
NCI/ADR-RES
  GI50: 33.7 µM (inactive)
OVCAR-3
  GI50: 37.8 µM (inactive)
OVCAR-4
  GI50: 28.4 µM (inactive)
OVCAR-5
  GI50: 50.6 µM (inactive)
OVCAR-8
  GI50: 43.8 µM (inactive)
PC-3
  GI50: 22 µM (inactive)
RPMI-8226
  GI50: > 100 µM (inactive)
RXF 393
  GI50: 52.8 µM (inactive)
SF-268
  GI50: 37.4 µM (inactive)
SF-295
  GI50: 33 µM (inactive)
SF-539
  GI50: 51.1 µM (inactive)
SK-MEL-28
  GI50: 31.1 µM (inactive)
SK-MEL-2
  GI50: 18.7 µM (inactive)
SK-MEL-5
  GI50: 35.6 µM (inactive)
SK-OV-3
  GI50: 37 µM (inactive)
SN12C
  GI50: 57.8 µM (inactive)
SNB-19
  GI50: 56.6 µM (inactive)
SR
  GI50: > 100 µM (inactive)
SW-620
  GI50: 78 µM (inactive)
T47D
  GI50: 35.1 µM (inactive)
TK-10
  GI50: 29.2 µM (inactive)
U-251
  GI50: 42.7 µM (inactive)
UACC-257
  GI50: 37.1 µM (inactive)
UACC-62
  GI50: 36.6 µM (inactive)
UO-31
  GI50: 24.4 µM (inactive)

## CCCS(=O)OC1C(C2COC(C)(C)O2)OC2OC(C)(C)OC21 (centres undefined)
786-0
  GI50: 13.2 µM (inactive)
A498
  GI50: 32.1 µM (inactive)
A549
  GI50: 20.9 µM (inactive)
ACHN
  GI50: 13.7 µM (inactive)
BT-549
  GI50: 12.1 µM (inactive)
CAKI-1
  GI50: 11.6 µM (inactive)
CCRF-CEM
  GI50: 3.15 µM (inactive)
COLO 205
  GI50: 11.7 µM (inactive)
DU-145
  GI50: 20.2 µM (inactive)
EKVX
  GI50: 16.4 µM (inactive)
HCC 2998
  GI50: 16.5 µM (inactive)
HCT-116
  GI50: 6.07 µM (inactive)
HCT-15
  GI50: 13.7 µM
HOP-62
  GI50: 13.6 µM (inactive)
HOP-92
  GI50: 5.87 µM (inactive)
HT-29
  GI50: 3.89 µM (inactive)
Hs-578T
  GI50: 4.46 µM (inactive)
IGROV-1
  GI50: 14.3 µM (inactive)
K562
  GI50: 5.65 µM (inactive)
KM12
  GI50: 13.1 µM (inactive)
LOX IMVI
  GI50: 6.43 µM (inactive)
M14
  GI50: 8.61 µM (inactive)
MCF7
  GI50: 12.4 µM (inactive)
MDA-MB-231
  GI50: 13.1 µM (inactive)
MDA-MB-435
  GI50: 6.31 µM (inactive)
MDA-N
  GI50: 15.1 µM (inactive)
MOLT-4
  GI50: 1.63 µM (inactive)
Malme-3M
  GI50: 9.59 µM (inactive)
NCI-H226
  GI50: 21.7 µM (inactive)
NCI-H23
  GI50: 7.26 µM (inactive)
NCI-H460
  GI50: 22.8 µM (inactive)
NCI-H522
  GI50: 9.27 µM (inactive)
NCI/ADR-RES
  GI50: 17.5 µM (inactive)
OVCAR-3
  GI50: 15.1 µM (inactive)
OVCAR-4
  GI50: 15.2 µM (inactive)
OVCAR-5
  GI50: 12.2 µM (inactive)
OVCAR-8
  GI50: 10.5 µM (inactive)
PC-3
  GI50: 2.87 µM (inactive)
RPMI-8226
  GI50: 2.88 µM (inactive)
RXF 393
  GI50: 9.59 µM (inactive)
SF-268
  GI50: 17.9 µM (inactive)
SF-295
  GI50: 15.1 µM (inactive)
SF-539
  GI50: 10.3 µM (inactive)
SK-MEL-28
  GI50: 14.5 µM (inactive)
SK-MEL-2
  GI50: 16.1 µM (inactive)
SK-MEL-5
  GI50: 13.2 µM (inactive)
SK-OV-3
  GI50: 22 µM (inactive)
SN12C
  GI50: 12.5 µM (inactive)
SNB-19
  GI50: 15 µM (inactive)
SNB-75
  GI50: 12.9 µM (inactive)
SR
  GI50: 0.497 µM (active)
SW-620
  GI50: 8.49 µM (inactive)
T47D
  GI50: 20.9 µM (inactive)
TK-10
  GI50: 16.2 µM (inactive)
U-251
  GI50: 8.26 µM (inactive)
UACC-257
  GI50: 13.6 µM (inactive)
UACC-62
  GI50: 12.1 µM (inactive)
UO-31
  GI50: 15 µM (inactive)
